In patent publication US20170320837A1, “METHOD FOR TREATING INFLAMMATORY DISORDERS” (Synta Pharmaceuticals Corp., priority 2006, published 2017):
“Also recorded” adds a separate entry of the source.

What was measured:
glucocorticoid receptor [1] = assay: Glucocorticoid receptor levels in human PBMCs, immunoblot (Example 114); format: cell-based; conditions: human PBMCs, 0, 1, 5, 25, or 100 nM, 16 hours
Experimental: (§1) The whole blood samples from healthy human volunteer and male SD rat were collected and the PBMCs were isolated immediately as follows. 5 ml of whole blood was diluted with an equal volume of sterile 1× PBS. The diluted blood was overlayed carefully into a sterile centrifuge tube without disturbing the bottom layer that containing 5 ml of Ficoll-paque plus density gradient solution. The layered blood was centrifuged at 1500×g for 30 minutes at room temperature. The middle thin layer containing PBMCs was carefully removed, transferred to another sterile centrifuge tube, and washed twice with PBS to remove […]. Isolated rat and human PBMCs were cultured in 10% fetal bovine serum/DMEM.
(§2) The rat and human PBMCs were treated with DMSO (control), Compound 226, Compound 287, or 17-DMAG at concentrations of 0, 1, 5, 25, or 100 nM (in DMSO) for 16 hours. The cells were then collected and rinsed in ice-cold PBS and stored in liquid nitrogen until further analysis.
(§3) PBMC were prepared in Western lysis buffer (10 mmol/L HEPES, 42 mmol/L KCl, 5 mmol/L MgCl2, 0.1 mmol/L EDTA, 0.1 mmol/L EGTA, 1 mmol/L DTT, 1% Triton X-100, freshly supplemented with 1× protease inhibitor cocktail from Pierce, Rockford, Ill.). Lysate protein concentrations were quantified by bicinchoninic acid assay (Pierce) and normalized. Equal amounts of protein were loaded onto 10% NuPAGE Bis-Tris Gels (Invitrogen) and subsequently transferred onto polyvinylidene difluoride membranes. The membranes were blocked in 5% milk in TBST. Primary antibody of glucocorticod receptor from Santa Cruz Biotechnology, Inc. was added and incubated at room temperature for 1 hour with shaking. The blots were washed extensively in TBST before secondary antibodies were added for overnight incubation at 4° C. with gentle shaking. The blots were again washed extensively and developed with SuperSignal West Femto substrate (Pierce). The immunoblot analysis was performed to measure the level of total GRs by Quantity One software from Bio-Rad.

glucocorticoid receptor [2] = assay: Glucocorticoid receptor levels in rat PBMCs, immunoblot; format: cell-based; conditions: rat PBMCs, 0, 1, 5, 25, or 100 nM, 16 hours
Experimental: as §1, §2, §3

human PBMCs = assay: Production of inflammatory cytokines in stimulated human PBMCs; format: cell-based; conditions: IFN-γ primed PBMCs stimulated with LPS or SAC, 16-18 hrs
Experimental: Human PBMC were isolated using Ficoll 400 and diatrizoate sodium (density 1.077 g/ml) solution and purified with RosetteSep (StemCell Technologies). The PBMCs were primed with human IFN-γ (800 U/ml, Pierce Biotechnology #R-IFNG-50), seeded at 0.5×10^6/100 μL/well in 96-well U-bottom plate with culture medium (RPMI 1640, 10% FBS, 1% Pen/Strep), and incubated in 37° C. for overnight. […] About 180 ul/well of supernatant was collected and measured using ELISA kit or Bio-plex (Bio-Rad) to determine the levels of cytokine production. The cell survival was determined using Cell Counting Kit-8 (Dojindo Molecular Technologies, Inc.). […]

glucocorticoid receptors = molecular target: T1, glucocorticoid receptors (Homo sapiens, UniProt P04150); assay: Competitive binding assay with tritium labeled dexamethason in Hela S3 cells (legend of FIG. 3)
T1 construct: endogenous in cells; host or cells: HeLa S3
T1 sequence (P04150 1-777): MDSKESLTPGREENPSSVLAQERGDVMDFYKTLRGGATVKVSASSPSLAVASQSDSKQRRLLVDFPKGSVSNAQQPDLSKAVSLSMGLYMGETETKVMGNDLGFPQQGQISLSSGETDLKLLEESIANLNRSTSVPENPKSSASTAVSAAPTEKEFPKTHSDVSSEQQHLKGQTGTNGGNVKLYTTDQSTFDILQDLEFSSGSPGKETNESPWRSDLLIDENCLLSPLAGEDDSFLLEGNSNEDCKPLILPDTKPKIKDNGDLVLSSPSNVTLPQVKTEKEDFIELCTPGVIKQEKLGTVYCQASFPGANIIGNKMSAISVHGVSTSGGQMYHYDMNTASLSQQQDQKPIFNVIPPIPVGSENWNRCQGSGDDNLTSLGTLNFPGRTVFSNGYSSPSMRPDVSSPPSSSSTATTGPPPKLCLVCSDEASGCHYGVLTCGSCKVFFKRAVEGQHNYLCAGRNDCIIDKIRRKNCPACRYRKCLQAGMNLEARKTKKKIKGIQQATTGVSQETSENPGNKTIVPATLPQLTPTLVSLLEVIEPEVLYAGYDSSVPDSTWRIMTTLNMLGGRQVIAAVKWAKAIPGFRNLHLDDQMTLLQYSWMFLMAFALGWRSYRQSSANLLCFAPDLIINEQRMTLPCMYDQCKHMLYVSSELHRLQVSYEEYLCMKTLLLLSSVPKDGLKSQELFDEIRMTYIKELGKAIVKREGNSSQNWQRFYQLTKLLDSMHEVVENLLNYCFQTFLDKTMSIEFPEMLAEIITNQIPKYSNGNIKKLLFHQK

glucocorticoid receptor [3] = assay: Glucocorticoid receptor levels in human PBMCs, renal cells and cancer cell lines, immunoblot (Example 115); format: cell-based
Experimental: Normal human renal proximal tubule epithelial cells and tumor cell lines of MV-4-11, Kasumi-1, and Hela were obtained from Cambrex Bioproducts and American Type Culture Collection, respectively. Cells were cultured with 10% fetal bovine serum/DMEM.
The whole blood samples from healthy human volunteer were collected and the PBMCs were isolated immediately as described in Example 116. Isolated human PBMCs were cultured in 10% fetal bovine serum/DMEM.
Human PBMCs, kasumi-1, My-4-11, Hela, and human renal proximal tubule epithelial cells were treated with DMSO (control), Compound 226, Compound 287, 17-DMAG at concentrations of 0, 5, 25, or 100 nM (in DMSO) for 16 hours. The cells were then collected and rinsed in ice-cold PBS and stored in liquid nitrogen until further analysis.
as §3, with “PBMC, renal and tumor cell pellets” for “PBMC”, “0.1. mmol/LEGTA,” for “0.1 mmol/L EGTA,”, “glucocorticoid” for “glucocorticod”, “(Pierce).” for “(Pierce). The immunoblot analysis was performed to measure the level of total GRs by Quantity One software from Bio-Rad.”

glucocorticoid receptor [4] = assay: Glucocorticoid receptor levels in PBMCs of rats after four days of intravenous dosing, immunoblot; format: in vivo, Sprague-Dawley (SD) rats; conditions: for expression of glucocorticoid receptor (GR) in isolated PBMC compared with vehicle: daily intravenously for four days, 17-DMAG 6 mg/kg, Paclitaxel 5 mg/kg, Compound 264 80 mg/kg, Compound 226 50 mg/kg
Experimental: The test compounds were administered daily intravenously via tail vein for four days. […] All rats were sacrificed at the study day 5. About 1-2 mL of blood samples were collected per animal. The blood samples were then pulled together as a group for PBMC isolation.

GR (human recombinant) = molecular target: T2, GR (human recombinant) (Homo sapiens, UniProt P04150); assay: GR competitive assay, fluorescence polarization with Fluormone GS1; format: binding; conditions: tested up to 10 uM
T2 construct: purchased Invitrogen P2816
T2 sequence (P04150 1-777): T1 sequence (P04150 1-777)
Experimental: To determine whether the compounds of the invention bind directly to the glucocorticoid receptor, GR competitive assay was performed using a kit from Invitrogen (Cat #P2816). GR (human recombinant) was added to a fluorescent glucocorticoid (Fluormone™ GS1) ligand with a test compound at various concentrations (a serial dilution of the test compound was done on a 96-well plate) and incubated for 2-4 hours in the dark. […] The shift in polarization value in the presence of a test compound was used to determine relative affinity of test compounds for glucocorticoid receptors. The buffer plus Fluormone™ GS1 and glucocorticoid receptor in the absent of s test compound was used as negative control presenting 0% competition. […] The IC50 was calculated based on the inhibition rate of binding activity of the testing compound.

SMILES | expression of glucocorticoid receptors (glucocorticoid receptor [1]) | expression of glucocorticoid receptors (glucocorticoid receptor [2]) | inhibition of the production of proinflammatory cytokines (human PBMCs) | displacement of tritium labeled dexamethason (glucocorticoid receptors) | suppression of glucocorticoid receptors, cancer cells compared with normal cells (glucocorticoid receptor [3]) | expression of glucocorticoid receptors (glucocorticoid receptor [3]; HeLa cells, 0, 5, 25, or 100 nM, 16 hrs) | expression of glucocorticoid receptors (glucocorticoid receptor [3]; Kasumi-1 AML cancer cells, 0, 5, 25, or 100 nM, 16 hrs) | expression of glucocorticoid receptors (glucocorticoid receptor [3]; MV-4-11 AML cancer cells, 0, 5, 25, or 100 nM, 16 hrs) | expression of glucocorticoid receptors (glucocorticoid receptor [3]; cancer cells as well as normal PBMCs and renal cells) | expression of glucocorticoid receptors (glucocorticoid receptor [3]; human PBMCs, 0, 5, 25, or 100 nM, 16 hrs) | expression of glucocorticoid receptors (glucocorticoid receptor [3]; human renal cells, 0, 5, 25, or 100 nM, 16 hrs) | size of the decrease of GR expression compared with the other treatments (glucocorticoid receptor [4]; 50 mg/kg daily intravenously for four days) | expression of glucocorticoid receptor (GR) in isolated PBMC compared with vehicle (glucocorticoid receptor [4]) | IC50 (GR (human recombinant))
CC(C)c1cc(-c2nnc(O)n2-c2ccc3c(ccn3C)c2)c(O)cc1O [Compound 226, 3-(2,4-dihydroxy-5-isopropyl-phenyl)-4-(1-methyl-indol-5-yl)-5-hydroxy-[1,2,4]triazole] | dose dependent decrease; also recorded: decreased the expression of glucocorticoid receptor in a dose dependent manner | dose dependent decrease; also recorded: decreased the expression of glucocorticoid receptor in a dose dependent manner | more broadly inhibits the production of proinflammatory cytokines than dexamethasone or 17-DMAG | did not displace the tritium labeled dexamethason | more pronounced in cancer cell than in normal cells | dose dependent decrease | dose dependent decrease | dose dependent decrease | suppress the expression of glucocorticoid receptors | dose dependent decrease | dose dependent decrease | most significant | decreased | > 10 µM
CCCN(C)c1cc(-n2c(S)nnc2-c2cc(C(C)C)c(O)cc2O)ccc1OC [Compound 264] |  |  |  |  |  |  |  |  |  |  |  |  | decreased | > 10 µM
